According to PMC4506958 (FEBS Open Bio, 2015):

How the values were obtained:
[1] = target: T1, Keap1 (Kelch-like ECH-associated protein 1) (Homo sapiens, UniProt Q14145); assay: X-ray crystal structures at […] Å (soaking form 3vnh, cocrystallization form 3vng); SPR; AlphaScreen competition with Nrf2 peptide; format: binding
T1 construct: Kelch domain (residues 321–609)

[2] = target: Nrf2 ETGE motif (Homo sapiens) (UniProt Q16236); assay: ITC; settings: cited from earlier work

Chain of Keap1 Kelch domain (Q14145 321-609): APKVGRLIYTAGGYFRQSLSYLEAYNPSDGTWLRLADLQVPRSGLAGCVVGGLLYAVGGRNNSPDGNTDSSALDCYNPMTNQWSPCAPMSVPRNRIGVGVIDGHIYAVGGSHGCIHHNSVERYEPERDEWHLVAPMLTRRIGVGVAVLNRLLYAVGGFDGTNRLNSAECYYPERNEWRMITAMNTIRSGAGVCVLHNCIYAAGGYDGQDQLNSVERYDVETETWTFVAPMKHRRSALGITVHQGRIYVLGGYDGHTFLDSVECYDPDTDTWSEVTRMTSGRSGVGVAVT
T1 sequence (Q14145 321-609): as above

Compound: O=C(O)COc1cccc(CNC(=O)Nc2nnc(-c3ccco3)o2)c1 [Ligand1, 2-(3-((3-(5-(furan-2-yl)-1,3,4-oxadiazol-2-yl)ureido)methyl)phenoxy)acetic acid]
- Kd [1]: > 50000 nM

Compound: Keap1 Kelch domain (from UniProt Q14145)
- Kd [2]: 8 nM
